“Also recorded” adds a separate entry of the source.
How the values were obtained:
Type in all cases: cell-based, human
hiPSC-RPEs (M8 line) = test: String-like aggregate formation under different Y-27632 concentrations, M8 line; details: for appearance of string-like aggregates: day 2
Procedure: After thawing, hiPSC-RPE cells were cultured for 2 weeks, the cells were collected, and seeded in the number described in each experiment into each groove of the PDMS-based culture device, using 15 μl RPE maintenance medium containing the optimal concentration of Y-27632 (concentrations indicated for each experiment). In the present inventors' preliminary experiment (FIG. 14A), higher concentrations of Y-27632 appeared to affect the texture of the string-like aggregates to become tighter. […] Next, the present inventors directly compared string-like aggregates made with either 2.5 μM or 10 μM of Y-27632 (FIGS. 13B-G). […] On the other hand, string-like aggregates formed with 10 μM Y-27632 appeared more dense (FIG. 13B).

[1] = system: hiPSC-RPE cells (M8 line); test: Adhesion and expansion of plated string-like aggregates on uncoated 24-well plate, M8 line; details: for adhesion to plate and expansion of string-like aggregates: uncoated wells
Procedure: The string-like aggregates were released from the grooves of the device, and the string-like aggregates were seeded onto an uncoated 24-well plate (Corning Incorporated) containing the mix medium. After adhesion of the string-like aggregates (2 to 3 days later), the medium was replaced with RPE maintenance medium (containing bFGF and SB431542). The dishes under culture were photographed using the IncuCyte Zoom system (Essen BioScience). From the obtained image data, expanded cells were manually marked using Fiji, and the expanded area was measured. In the present inventors' preliminary experiment (FIG. 14A), higher concentrations of Y-27632 appeared to affect the texture of the string-like aggregates to become tighter. […] The string-like aggregates on day 2 (FIGS. 13D and E) and day 3 (FIGS. 13F and G) were then used to compare cell expansion after plating in uncoated wells between string-like aggregates formed with 2.5 and 10 μM Y-27632.

[2] = system: hiPSC-RPE cells (201B7modFucci line); test: Adhesion/expansion assay of plated string-like aggregates, 201B7modFucci line
Procedure: The string-like aggregates were released from the grooves of the device, and the string-like aggregates were seeded onto an uncoated 24-well plate (Corning Incorporated) containing the mix medium. After adhesion of the string-like aggregates (2 to 3 days later), the medium was replaced with RPE maintenance medium (containing bFGF and SB431542). The dishes under culture were photographed using the IncuCyte Zoom system (Essen BioScience). From the obtained image data, expanded cells were manually marked using Fiji, and the expanded area was measured. The present inventors tested whether another hiPSC line could similarly form string-like aggregates. The present inventors used the 201B7modFucci line to induce RPE differentiation and compared it with hiPSC(M8)-RPE. hiPSC(201B7modFucci)-RPE also formed string-like aggregates like hiPSC(M8)-RPE, but the 201B7modFucci line required a Y-27632 concentration of 5 μM or higher to stably form string-like aggregates (FIG. 15-1A). The optimal Y-27632 concentration for adhesion/expansion assays was 5 μM for hiPSC(201B7modFucci)-string-like aggregates, and the optimal Y-27632 concentration for the desired adhesion/expansion effect varied depending on the cell line used and required optimization (FIGS. 14D and E). […]

C[C@@H](N)[C@H]1CC[C@H](C(=O)Nc2ccncc2)CC1 [Y-27632]
string-like aggregate formation (hiPSC-RPEs (M8 line); M8 line, 0 and 1 μM Y-27632): not successfully formed | Y-27632 concentration at which hiPSC-RPEs were able to form string-like aggregate shape (hiPSC-RPEs (M8 line); M8 line, tested 0, 1, 2, 2.5 and 10 μM): above 2 μM | appearance of string-like aggregates (hiPSC-RPEs (M8 line); formed with 2.5 μM Y-27632): flat and loose | appearance of string-like aggregates (hiPSC-RPEs (M8 line); formed with 10 μM Y-27632): more dense | adhesiveness of string-like aggregates to the plate ([1]; aggregates added with 2-2.5 μM Y-27632, M8 line, day 2 aggregates, 24-well plate): highest adhesiveness to the plate | adhesion to plate and expansion of string-like aggregates ([1]; aggregates formed with 2.5 μM Y-27632, compared with 10 μM, day 2 and day 3 aggregates): tended to attach to the plate and begin to expand early after placing; also recorded: higher adhesiveness to the plate, covered more area, and began to expand faster on the plate | adhesion to plate and expansion of string-like aggregates ([1]; aggregates formed with 10 μM Y-27632): expansion was delayed; also recorded: tended to be coil-like and moved around for several days before settling and starting to expand | adhesiveness of string-like aggregates to the plate ([2]; aggregates added with 2-2.5 μM Y-27632, 201B7modFucci line, day 2 aggregates, 24-well plate): consistently adherent to the plate | optimal Y-27632 concentration for adhesion/expansion assays ([2]; hiPSC(201B7modFucci)-string-like aggregates): 5 µM
